Structures can show the parent of a compound that is named as a salt.
How the values were obtained:
[1] = target: T1, recombinant human Meningioma Expressed Antigen 5 (MGEA5), also referred to as O-GlcNAcase (OGA) (Homo sapiens, UniProt O60502); assay: OGA biochemical assay (inhibition of FM-GlcNAc hydrolysis, fluorescence); conditions: for Emax: read-out: ENZYMATIC Emax (%); for IC50: read-out: ENZYMATIC hOGA, pIC50 (converted)
T1 construct: Full length OGA enzyme was purchased at OriGene (cat # TP322411); purchased OriGene TP322411
T1 sequence (O60502 1-916): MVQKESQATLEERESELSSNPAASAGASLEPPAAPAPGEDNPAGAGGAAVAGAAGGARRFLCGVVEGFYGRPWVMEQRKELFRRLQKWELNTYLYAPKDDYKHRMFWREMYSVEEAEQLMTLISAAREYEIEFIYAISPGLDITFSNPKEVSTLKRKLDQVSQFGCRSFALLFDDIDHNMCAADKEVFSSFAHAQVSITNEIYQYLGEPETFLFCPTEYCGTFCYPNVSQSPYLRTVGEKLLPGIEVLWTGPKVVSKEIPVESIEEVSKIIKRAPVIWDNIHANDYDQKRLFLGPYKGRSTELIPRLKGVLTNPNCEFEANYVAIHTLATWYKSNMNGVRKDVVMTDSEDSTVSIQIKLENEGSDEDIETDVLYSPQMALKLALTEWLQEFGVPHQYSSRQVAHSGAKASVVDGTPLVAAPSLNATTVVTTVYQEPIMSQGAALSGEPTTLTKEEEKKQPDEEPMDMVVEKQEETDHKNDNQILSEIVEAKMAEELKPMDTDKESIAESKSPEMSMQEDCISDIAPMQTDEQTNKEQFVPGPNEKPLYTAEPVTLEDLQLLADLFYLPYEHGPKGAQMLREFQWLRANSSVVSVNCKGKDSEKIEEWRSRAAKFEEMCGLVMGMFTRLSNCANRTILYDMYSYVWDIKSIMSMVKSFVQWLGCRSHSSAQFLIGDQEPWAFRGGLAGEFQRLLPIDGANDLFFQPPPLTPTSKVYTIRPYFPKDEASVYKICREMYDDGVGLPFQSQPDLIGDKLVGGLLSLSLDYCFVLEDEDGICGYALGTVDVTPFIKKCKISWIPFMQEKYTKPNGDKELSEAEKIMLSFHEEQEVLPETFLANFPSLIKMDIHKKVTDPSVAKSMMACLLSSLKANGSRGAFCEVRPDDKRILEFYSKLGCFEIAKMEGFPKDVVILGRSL
Description: The assay is based on the inhibition of the hydrolysis of fluorescein mono-β-D-N-Acetyl-Glucosamine (FM-GlcNAc) (Mariappa et al. 2015, Biochem J 470:255) by the recombinant human Meningioma Expressed Antigen 5 (MGEA5), also referred to as O-GlcNAcase (OGA). The hydrolysis FM-GlcNAc (Marker Gene technologies, cat # M1485) results in the formation of B-D-N-glucosamineacetate and fluorescein. The fluorescence of the latter can be measured at excitation wavelength 485 nm and emission wavelength 538 nm. An increase in enzyme activity results in an increase in fluorescence signal. Full length OGA enzyme was purchased at OriGene (cat # TP322411). The enzyme was stored in 25 mM Tris.HCl, pH 7.3, 100 mM glycine, 10% glycerol at −20° C. Thiamet G and GlcNAcStatin were tested as reference compounds (Yuzwa et al. 2008 Nature Chemical Biology 4:483; Yuzwa et al. 2012 Nature Chemical Biology 8:393). The assay was performed in 200 mM Citrate/phosphate buffer supplemented with 0.005% Tween-20. 35.6 g Na2HPO4 2 H2O (Sigma, # C0759) were dissolved in 1 L water to obtain a 200 mM solution. 19.2 g citric acid (Merck, # 1.06580) was dissolved in 1 L water to obtain a 100 mM solution. pH of the sodium phosphate solution was adjusted with the citric acid solution to 7.2. The buffer to stop the reaction consists of a 500 mM Carbonate buffer, pH 11.0. 734 mg FM-GlcNAc were dissolved in 5.48 mL DMSO to obtain a 250 mM solution and was stored at −20° C. OGA was used at 2 nM concentration and FM-GlcNAc at a 100 uM final concentration. Dilutions were prepared in assay buffer.
50 nl of a compound dissolved in DMSO was dispensed on Black Proxiplate™ 384 Plus Assay plates (Perkin Elmer, #6008269) and 3 μl fl-OGA enzyme mix added subsequently. Plates were pre-incubated for 60 min at room temperature and then 2 μl FM-GlcNAc substrate mix added. […] Plates were briefly centrifuged for 1 min at 1000rpm and incubate at room temperature for 6 h. To stop the reaction 5 μl STOP buffer were added and plates centrifuge again 1 min at 1000 rpm.
Fluorescence was quantified in the Thermo Scientific Fluoroskan Ascent or the PerkinElmer EnVision with excitation wavelength 485 nm and emission wavelength 538 nm.
For analysis a best-fit curve is fitted by a minimum sum of squares method. From this an IC50 value and Hill coefficient was obtained. High control (no inhibitor) and low control (saturating concentrations of standard inhibitor) were used to define the minimum and maximum values.

OGA = target: T2, OGA (Homo sapiens, UniProt O60502); assay: OGA cellular assay (ICC detection of O-GlcNAcylated proteins in HEK293 cells inducible for P301L mutant human Tau); format: cell-based; conditions: 6 hours incubation; for EC50: read-out: CELLULAR hOGA, pEC50 (converted)
T2 construct: HEK293 cells inducible for P301L mutant human Tau (isoform 2N4R) were established at Janssen; endogenous in cells; host or cells: HEK293 cells inducible for P301L mutant human Tau (2N4R)
T2 sequence (O60502 1-916): T1 sequence (O60502 1-916)
Description: HEK293 cells inducible for P301L mutant human Tau (isoform 2N4R) were established at Janssen. Thiamet-G was used for both plate validation (high control) and as reference compound (reference EC50 assay validation). OGA inhibition is evaluated through the immunocytochemical (ICC) detection of O-GlcNAcylated proteins by the use of a monoclonal antibody (CTD110.6; Cell Signaling, #9875) detecting O-GlcNAcylated residues as previously described (Dorfmueller et al. 2010 Chemistry & biology, 17:1250). Inhibition of OGA will result in an increase of O-GlcNAcylated protein levels resulting in an increased signal in the experiment. Cell nuclei are stained with Hoechst to give a cell culture quality control and a rough estimate of immediate compounds toxicity, if any. ICC pictures are imaged with a Perkin Elmer Opera Phenix plate microscope and quantified with the provided software Perkin Elmer Harmony 4.1.
Cells were propagated in DMEM high Glucose (Sigma, #D5796) following standard procedures. 2 days before the cell assay cells are split, counted and seeded in Poly-D-Lysine (PDL) coated 96-wells (Greiner, #655946) plate at a cell density of 12,000 cells per cm^2 (4,000 cells per well) in 100 µl of Assay Medium (Low Glucose medium is used to reduce basal levels of GlcNAcylation) (Park et al. 2014 The Journal of biological chemistry 289:13519). At the day of compound test medium from assay plates was removed and replenished with 90 μl of fresh Assay Medium. 10 μl of compounds at a 10 fold final concentration were added to the wells. Plates were centrifuged shortly before incubation in the cell incubator for 6 hours. DMSO concentration was set to 0.2%. Medium is discarded by applying vacuum. For staining of cells medium was removed and cells washed once with 100 μl D-PBS (Sigma, #D8537). From next step onwards unless other stated assay volume was always 50 μl and incubation was performed without agitation and at room temperature. Cells were fixed in 50 μl of a 4% paraformaldehyde (PFA, Alpha aesar, # 043368) PBS solution for 15 minutes at room temperature. […] Before analysis samples were washed 2 times manually for 5 minutes in ICC base buffer.
Imaging is performed using Perkin Elmer Phenix Opera using a water 20× objective and recording 9 fields per well. Intensity readout at 488 nm is used as a measure of O-GlcNAcylation level of total proteins in wells. To assess potential toxicity of compounds nuclei were counted using the Hoechst staining. IC50-values are calculated using parametric non-linear regression model fitting. As a maximum inhibition Thiamet G at a 200 uM concentration is present on each plate. In addition, a concentration response of Thiamet G is calculated on each plate.

| Structure (SMILES) | melting point [°C] | Emax [1] [%] | IC50 [1] [µM] | Emax (OGA) [%] | EC50 (OGA) [µM] | ENZYMATIC hOGA; pIC50 [1] |
| --- | --- | --- | --- | --- | --- | --- |
| Cc1cc(N2CCC3(CCN(Cc4ccc5sc(C)nc5c4)C3)C2)nc(C)n1 (centres unmarked) (as salt: HCl) [Product 32] | 214.8 |  |  |  |  |  |
| Cc1cc(N2CCC3(CCN(C(C)c4ccc5nccnc5c4)C3)C2)nc(C)n1.Cl (centres unmarked) [Product 20] | 173.1 | 97.6 | 0.117 | 14.9 | > 1000 |  |
| Cc1cc(N2CCC3(CCN(C(C)c4ccc5scnc5c4)C3)C2)nc(C)n1.Cl (centres unmarked) [Product 24] | 218.2 | 99.3 | 0.049 | 38 | > 1 |  |
| Cc1cc(N2CCC3(CCN(C(C)c4cc5ccccc5n4C)C3)C2)nc(C)n1.Cl (centres unmarked) [Product 27] | 166.4 | 79.4 |  |  |  | 5.58 |
| Cc1cc(N2CCC3(CCN(C(C)c4ccc5sc(C)nc5c4)C3)C2)nc(C)n1 (centres unmarked) [Product 31] | 230 | 102 | 0.0339 | 23.7 | > 1 |  |
| CC(=O)Nc1ncc(CN2CCC3(CCN(c4cncc(C(F)(F)F)c4)C3)C2)s1 (centres unmarked) [Product 69] |  | 99.1 | 0.049 | 57.6 | 0.676 |  |

Further lines, results first:

| melting point [°C] | Emax [1] [%] | IC50 [1] [µM] | Emax (OGA) [%] | EC50 (OGA) [µM] | ENZYMATIC hOGA; pIC50 [1] | Structure (SMILES) |
| --- | --- | --- | --- | --- | --- | --- |
| 212.2 | 100 | 0.302 |  |  |  | CC(=O)Nc1ncc(CN2CCC3(C2)CN(c2cc(C)nc(C)c2)C3)s1 [Product 23] |
| 214.1 | 57.9 | 8.71 |  |  |  | CC(=O)Nc1ncc(CN2CC3(CCN(c4cc(C)nc(C)c4)C3)C2)s1 [Product 25] |
|  | 99.7 | 0.0692 | 38.5 | > 1 |  | COc1cc(C)cc(N2CCC3(CCN(Cc4cnc(NC(C)=O)s4)C3)C2)n1 (centres unmarked) [Product 66] |
|  | 99.4 | 0.0347 | 45.6 | 0.537 |  | COc1cncc(N2CCC3(CCN(Cc4cnc(NC(C)=O)s4)C3)C2)c1 (centres unmarked) [Product 67] |
|  | 103 | 0.0102 | 92.9 | 0.138 |  | CC(=O)Nc1ncc(CN2CCC3(CCN(c4cncc(C)c4)C3)C2)s1 (centres unmarked) [Product 68] |
